Earlier results in patent EP0062861A1, “Isophorone-free formulations of the herbicide propanyl” (Montedison S.p.A., priority 1981, dated 1982).

System: mammalians
Conditions: toxicity towards mammalians

CCC(=O)Nc1ccc(Cl)c(Cl)c1 [Propanyl, N-(3,4-dichlorophenyl)-propionamide]
LD 50: 1384 mg/kg
